Measured values: patent US9861640B2, “Medicament for treatment of Alzheimer's disease” (KEMPHYS LTD., priority 2013, dated 2018)

What was measured:
RXR = settings: 20 mg/kg; RXR-specific reporter transgene [48]; cited from earlier work
nitric oxide production = settings: in vitro [72, 73]; cited from earlier work
TNF-α = settings: in vitro, Aβ peptide-activated [72]; cited from earlier work
RARβ and IL-4Rα mRNAs = settings: murine dendritic cells [66]; cited from earlier work
APP/PS1 mice = settings: cited from earlier work
IDE = settings: murine microglial cells [17]; cited from earlier work
[1] = mice [17]; cited from earlier work
Tg2576 mice = settings: T-maze spontaneous alternation and Nest building tests [17]; cited from earlier work
CD36 = test: Immunoblot of CD36 in rat primary microglia; type: cell-based; settings: rat primary microglia; co-incubation of GW9662 (10 μM) with HX630 (5 μM), 48 h
Description: Primary microglia (type 1) were harvested from primary mixed glial cell cultures prepared from neonatal Wistar rat pups, as previously reported. Mouse microglial cell line MG5 and mouse glial cell line A1 were maintained as previously described. Mouse neuroblastoma cell line N1E-115 and Neuro 2a (American Type Culture Collection, Manassas, Va., USA) were maintained in Dulbecco's modified Eagle's medium (DMEM) supplemented with 10% fetal bovine serum (FBS), 20 U/ml penicillin (Invitrogen, Gaithersburg, Md., USA), and 20 μg/ml streptomycin (Invitrogen). Primary rat microglia were treated with Am80 (5 μM) and/or HX630 (5 μM) in the presence and absence of GW9662 (10 μM) for 48 h in Eagle's MEM supplemented with 10% FBS and 0.2% glucose. MG5 cells and A1 cells were treated with Am80 (5 μM) and/or HX630 (5 μM) for 48 h in DMEM containing 10% FBS. […]
Rat primary microglia and mouse microglial MG5 cells (5×10^6 cells per 100-mm dish) were homogenized in RIPA buffer [10 mM Hepes-NaOH (pH 7.4) containing 150 mM NaCl, 1 mM EDTA, 1% Triton X-100, 0.5% sodium deoxycholate, 0.1% SDS, 1 mM PMSF, 1 mg/ml leupeptin. […] Bound horseradish peroxidase-labeled antibodies were then detected via chemiluminescence (an ECL kit; Pierce, Rockford, Ill., USA). Protein concentrations were determined with the BCA Protein Assay Reagent (Pierce) and Bradford Protein Assay Reagent (Pierce).

RARs = settings: at higher concentrations [49]; cited from earlier work
rat primary microglia = test: Clearance of 125I-labeled oligomeric Aβ1-42 by rat primary microglia; type: cell-based
Description: Primary microglia (type 1) were harvested from primary mixed glial cell cultures prepared from neonatal Wistar rat pups, as previously reported. Mouse microglial cell line MG5 and mouse glial cell line A1 were maintained as previously described. Mouse neuroblastoma cell line N1E-115 and Neuro 2a (American Type Culture Collection, Manassas, Va., USA) were maintained in Dulbecco's modified Eagle's medium (DMEM) supplemented with 10% fetal bovine serum (FBS), 20 U/ml penicillin (Invitrogen, Gaithersburg, Md., USA), and 20 μg/ml streptomycin (Invitrogen). Primary rat microglia were treated with Am80 (5 μM) and/or HX630 (5 μM) in the presence and absence of GW9662 (10 μM) for 48 h in Eagle's MEM supplemented with 10% FBS and 0.2% glucose. MG5 cells and A1 cells were treated with Am80 (5 μM) and/or HX630 (5 μM) for 48 h in DMEM containing 10% FBS. N1E-115 cells were treated with Am80 (5 μM) and/or HX630 (5 μM) for 5 days in DMEM containing 2% FBS.
^125I-Labeled oligomeric Aβ1-42 (o-Aβ1-42) was prepared as described. Cells were cultured in 24-well plates for 48 h in Eagle's MEM supplemented with 10% FBS in the presence or absence of Am80 (5 μM) and HX630 (5 μM). After the 48-h treatment, the cells were washed twice with labeling medium (DMEM containing 3% BSA) and then incubated with ^125I-labeled o-Aβ1-42 for 6 h at 37° C. Following the 6-h incubation, medium was removed from each well, and soluble radioactivity in TCA (degraded and extracellularly released peptide fragments) was determined as an index of Aβ degradation in the medium as described previously. The Aβ degradation activity may thus include both receptor-mediated phagocytic activity and extracellular protease-mediated degradation. Cells were washed three times with PBS, then lysed with 0.4 ml of 0.1 M NaOH for 30 min at 37° C., and cell-associated (including cell-incorporated) radioactivity and cell proteins were determined with an autogamma counter and the BCA Protein Assay Reagent (Pierce), respectively. We could not determine the activity of IDE-dependent degradation in this medium, because the incubation medium was replaced with labeling medium prior to incubation with ^[…].

CC1=C(/C=C/C(C)=C/C=C/C(C)=C/C(=O)O)C(C)(C)CCC1 [ATRA, all trans retinoic acid]
activation of RXR in vivo (RXR): activates RXR | inhibition of nitric oxide production (nitric oxide production): complete inhibition | inhibitory effect on TNF-α production (TNF-α): 40-50% | mRNAs encoding RARβ and IL-4Rα (RARβ and IL-4Rα mRNAs): markedly increased | memory function in APP/PS1 mice (APP/PS1 mice; ATRA alone [14]): improved memory function

CC1(C)CCC(C)(C)c2cc(C(=O)Nc3ccc(C(=O)O)cc3)ccc21 [Am580, 4-{(5,6,7,8-tetrahydro5,5,8,8-tetramethyl-2-naphthalenyl)carboxamido}benzoic acid]
IDE activity in the medium (IDE): increased | crossing of the BBB [1]: crosses the BBB | cognitive deficits in Tg2576 mice (Tg2576 mice): ameliorated cognitive deficits

O=C(Nc1ccccc1)c1cc([N+](=O)[O-])ccc1Cl [GW9662]
effect on the HX630-induced increase in CD36 expression (CD36): inhibited

C=C(c1ccc(C(=O)O)cc1)c1cc2c(cc1C)C(C)(C)CCC2(C)C [bexarotene]
cross-reactivity with RARs (RARs): cross-reactivity | behavioral defects in APP/PS1 mice (APP/PS1 mice; mouse, in vivo): improved behavioral defects

O=C(O)CNC(=O)C(CS)Cc1ccccc1 (centres unmarked) [thiorphan]
effect on degradation activity in Am80/HX630-treated cells (rat primary microglia; thiorphan 30 μM): did not affect

fucoidan
effect on the HX630- and Am80/HX630-induced increase of o-Aβ1-42 degradation activity (rat primary microglia; fucoidan 100 μg/ml): inhibited

insulin: an IDE inhibitor
effect on cell-association and degradation activities in Am80/HX630-treated cells (rat primary microglia; insulin 100 μg/ml): inhibited
